Test results as given in patent publication US10233165B2, “Cyclopropylamine compounds as histone demethylase inhibitors” (IEO—Instituto Europeo di Oncologia S.r.l., priority 2014, dated 2019).
pIC50: −log10 of the molar value. Counter-ions that a name gives are not always drawn. Like-named read-outs stand apart in the source and are kept apart here. Each block holds one compound with its values, some of them ahead of it.

How the values were obtained:
[1] = tested on: Human leukemia MV4-11 cells; experiment: Cell growth, CellTiter-Fluor viability assay; assay type: cell-based; conditions: 48 h incubation, read-out: IC50 [μM] cell growth inhibitory assay
Text: CellTiter-Flor® (Promega) is a nonlytic, single-reagent-addition fluorescence assay that measures the relative number of living cells in a culture population after experimental manipulation. The CellTiter-Fluor™ Cell Viability Assay measures the conserved and constitutive protease activity within live cells and therefore acts as a marker for cell viability.
Human leukemia MV4-11 cells, (obtained from the Deutsche Sammlung von Mikroorganismen and Zellkulturen, ACC 102) in exponential growth, were incubated for 48 h with different concentrations of the inhibitors (e.g. from 0 to 100 μM). After 48 h a volume of CellTiterFluor® Reagent equal to the volume of cell culture medium was added. The content was mixed and incubates for at least 90 min at 37° C. degree to obtain a stable signal. The fluorescence was recorded using an excitation wavelength of 360 nm and an emission at 535 nm. The IC50 was calculated using GraphPad Software.

Human recombinant MAO A = target: T1, Human recombinant MAO A (Homo sapiens, UniProt P21397); experiment: Bioluminescent-coupled assay for monoamine oxidases (MAO-Glo), MAO-A; assay type: biochemical; conditions: for IC50 (MAO-A)/ IC50 (LSD1): ratio, 15 min preincubation of compound with enzyme
T1 construct: made in house; host or cells: Pichia pastoris
T1 sequence (P21397 1-527): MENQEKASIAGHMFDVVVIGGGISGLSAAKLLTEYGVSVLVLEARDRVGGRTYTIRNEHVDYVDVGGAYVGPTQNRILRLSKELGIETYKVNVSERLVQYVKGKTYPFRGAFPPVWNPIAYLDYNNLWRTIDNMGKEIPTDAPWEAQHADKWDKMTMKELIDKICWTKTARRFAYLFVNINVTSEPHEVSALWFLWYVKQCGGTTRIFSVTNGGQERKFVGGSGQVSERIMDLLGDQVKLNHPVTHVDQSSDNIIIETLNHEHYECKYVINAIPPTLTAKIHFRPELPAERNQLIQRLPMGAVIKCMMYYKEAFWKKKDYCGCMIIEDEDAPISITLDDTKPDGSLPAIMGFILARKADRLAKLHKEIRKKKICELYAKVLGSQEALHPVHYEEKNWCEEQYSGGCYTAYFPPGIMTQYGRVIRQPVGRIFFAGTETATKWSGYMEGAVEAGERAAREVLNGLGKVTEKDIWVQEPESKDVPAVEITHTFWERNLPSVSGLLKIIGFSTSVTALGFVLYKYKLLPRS
Procedure: The MAO-Glo Assay from Promega (cat. V1402, Promega, Madison, Wis.) was used to measure the effect of inhibitors on MAO-A and MAO-B activity.
Human recombinant MAO A and MAO B were expressed in Pichia pastoris and purified as published (Binda C. et al. Proc. Natl. Acad. Sci. USA, 2003, 9750-9755). The assay was performed at RT in 50 μL (25 μL reaction solution+25 μL detection reagent) in 96 well half area white plates (cat. 3693, Corning, Corning, N.Y.). Luminescence was measured after 20 min incubation in the dark using a microplate reader (Infinite F200, Tecan Group, Switzerland) with an integration time of 0.25 s per well.
50 nM MAO-A or 125 nM MAO-B were incubated with five different inhibitor concentrations (from 0.004 μM to 100 μM) for 15 min at RT in Promega MAO Buffer or Promega MAO-B Buffer (MAO-Glo Assay kit, catalogue number V1402, Promega, Madison, Wis.). […] After 30 min of incubation the reaction was stopped with the Promega detection reagent. The experiments were carried out in duplicate. IC50 was calculated using GraphPad Prism version 4.0 (GraphPad Software, San Diego, Calif.).

CD14 mRNA in THP-1 cells [2] = experiment: THP-1 target modulation, CD14 mRNA by quantitative RT-PCR; assay type: cell-based, human; conditions: 0.1 μM inhibitor, 5 days, normalized against TBP mRNA
Procedure: (§1) For this scope THP-1 cells (ACC 16: DSMZ Leibniz Institute DSMZ German collection of Microorganism and cell culture) were plated at cellular density of 50.000 cells/mL and were incubated with the inhibitor at a fixed concentration of 0.1 μM for 5 days. Then, the cells were recovered and mRNA extracted to follow mRNA levels of the macrophage-specific genes CD14. mRNA expression was measured by quantitative RT-PCR (Fast SYBR Green Master mix, Applied Biosystems Foster City, Calif.) using specific primers and normalized against TBP mRNA. […] Primers used in this study were: […]

[3] = target: T2, human recombinant KDM1A (LSD1)/CoRest complex (Homo sapiens, UniProt O60341); experiment: Assay of enzyme inhibition of KDM1A (LSD1), Amplex UltraRed/peroxidase; assay type: biochemical; conditions: result in words
T2 construct: made in house; host or cells: E. coli
Procedure: The complex of human recombinant KDM1A (LSD1)/CoRest protein was produced in E. coli as separate proteins and co-purified following previously reported procedures (Forneris F. et al. Trends Biochem. Sci. 2008, 33, 181-189; Forneris F. et al. J. Biol. Chem. 2007, 282, 20070-20074). The experiments were performed using a mono-methylated H3-K4 peptide containing 21 amino acids (custom synthesis done by Thermo Scientific) as substrate and in 50 mM TRIS, pH 8.0 and 0.05 mg/ml BSA. The peptide purity was >90% as checked by analytical high-pressure liquid chromatography and mass spectrometry.
The demethylase activity was estimated under aerobic conditions and at RT by measuring the release of H2O2 produced during the catalytic process by the Amplex® UltraRed detection system coupled with peroxidase assay. […] The conversion of the Amplex® Ultra Red reagent to resorufin was monitored in continuous by fluorescence (excitation at 540 nm, emission at 590 nm) using a microplate reader (Infinite 200, Tecan). […] The maximum demethylase activity of KDM1A/CoRest was obtained in the absence of inhibitors and corrected for background fluorescence in the absence of KDM1A/CoRest. The IC50 was calculated using GraphPad Software.

human THP-1 cells = experiment: THP-1 methylcellulose assay, colony formation; assay type: cell-based; conditions: 500 nM inhibitor, 13 days, versus vehicle; for inhibition at 0.5 µM: Homo sapiens, THP-1, 312 h
Procedure: The KDM1A inhibitors were tested for their anti-clonogenic potential on human THP-1 cells (ACC 16: DSMZ Leibniz Institute DSMZ German collection of Microorganism and cell culture).
(§2) THP-1 cells were plated at a density of 250 cells per plate and cultured with the inhibitors at a fixed dose of 500 nM in MethoCult™ H4435 Enriched medium (StemCell Technologies, Vancouver, BC) for 13 days according to the manufacturer instructions. Then, the colony forming potential was scored by direct visualization using an inverted microscope and the percentage of inhibition over the vehicle was assessed. In addition, the cells were harvested and compounds-induced maturation was monitored by changes in the mRNA levels of macrophage-specific genes (CD14) as reported above.

CD14 mRNA in THP-1 cells [4] = experiment: THP-1 methylcellulose assay, CD14 mRNA in harvested cells; assay type: cell-based, human; conditions: THP-1 cells harvested from methylcellulose, 500 nM inhibitor, 13 days
Procedure: as §1, §2

SMILES: CN1CCN(c2cc(C(=O)Nc3ccc([C@@H]4C[C@H]4N)cc3)ccc2NC(=O)OCc2ccccc2)CC1 (relative stereo) [Example 6, Benzyl N-[4-[[4-[trans-2-aminocyclopropyl]phenyl]carbamoyl]-2-(4-methylpiperazin-1-yl)phenyl]carbamate Dihydrochloride]
- IC50 ([1]; Homo sapiens): ≤ 5 µM
- IC50 (MAO-A)/ IC50 (LSD1) (Human recombinant MAO A): 15.3
- Target modulation CD14 mRNA expression (fold increase versus vehicle) (CD14 mRNA in THP-1 cells [2]): 13 fold increase versus vehicle

- IC50 ([1]; Homo sapiens): 5 to 50 µM
SMILES: N[C@@H]1C[C@H]1c1ccc(NC(=O)c2ccc(N3CCOCC3)cc2)cc1 (relative stereo) [Example 4, N-[4-[trans-2-aminocyclopropyl]phenyl]-4-morpholino-benzamide Hydrochloride]

SMILES: N[C@@H]1C[C@H]1c1ccc(NC(=O)c2ccc(N3CCOCC3)c(NC(=O)OCc3ccccc3)c2)cc1 (relative stereo) [Example 9, Benzyl N-[5-[[4-[trans-2-aminocyclopropyl]phenyl]carbamoyl]-2-morpholino-phenyl]carbamate hydrochloride]
- IC50 ([1]; Homo sapiens): ≤ 5 µM
- IC50 (MAO-A)/ IC50 (LSD1) (Human recombinant MAO A): 3.17

SMILES: N[C@@H]1C[C@H]1c1ccc(NC(=O)c2ccc(-c3ccccc3)cc2)cc1 (relative stereo) [Example 5e, N-[4-[trans-2-aminocyclopropyl]phenyl]-4-phenyl-benzamide, reference compound]
- activity on KDM1A (LSD1) [3]: inactive
- IC50 ([1]; Homo sapiens): ≤ 5 µM
- pIC50 (Human recombinant MAO A; 50 nM MAO-A, 15 min preincubation, read-out: MAO-A inhibition IC50): 7.27
- Target modulation CD14 mRNA expression (fold increase versus vehicle) (CD14 mRNA in THP-1 cells [2]): 2.2 fold increase versus vehicle

- IC50 ([1]; Homo sapiens): ≤ 5 µM
SMILES: N[C@@H]1C[C@H]1c1ccc(NC(=O)c2ccc(N3CCCCC3)c(NC(=O)OCc3ccccc3)c2)cc1 (relative stereo) [Example 8, Benzyl N-[5-[[4-[trans-2-aminocyclopropyl]phenyl]carbamoyl]-2-(1-piperidyl)phenyl]carbamate Hydrochloride]

- IC50 ([1]; Homo sapiens): 50 to 100 µM
- IC50 (MAO-A)/ IC50 (LSD1) (Human recombinant MAO A): 1.56
SMILES: N[C@@H]1C[C@H]1c1ccc(NC(=O)c2ccccc2)cc1 (relative stereo) [Example 5b, N-[4-[trans-2-aminocyclopropyl]phenyl]benzamide, reference compound]

SMILES: N[C@@H]1C[C@H]1c1ccc(NC(=O)c2cccc(N3CCOC3=O)c2)cc1 [Example 11, N-[4-[(1S,2R)-2-aminocyclopropyl]phenyl]-3-(2-oxooxazolidin-3-yl)benzamide Hydrochloride]
- IC50 [1]: ≤ 5 µM
- IC50 (MAO-A)/ IC50 (LSD1) (Human recombinant MAO A; hydrochloride): 5.93
- Target modulation CD14 mRNA expression (fold increase versus vehicle) (CD14 mRNA in THP-1 cells [2]; hydrochloride): 15.1 fold increase versus vehicle
- Colony formation % of Inhibition (human THP-1 cells; Hydrochloride, 0.5 µM): 36.3%
- Colony formation Target Modulation CD14 mRNA expression (Fold increase) (CD14 mRNA in THP-1 cells [4]; hydrochloride): 27.7 Fold increase

- IC50 ([1]; Homo sapiens): 5 to 50 µM
SMILES: N[C@@H]1C[C@H]1c1ccc(NC(=O)c2ccc(N3CCOC3=O)cc2)cc1 (relative stereo) [Example 5, N-[4-[trans-2-aminocyclopropyl]phenyl]-4-(2-oxooxazolidin-3-yl)benzamide Hydrochloride]

- IC50 ([1]; Homo sapiens): ≤ 5 µM
- IC50 (MAO-A)/ IC50 (LSD1) (Human recombinant MAO A): 11.2
SMILES: CN1CCN(c2ccc(C(=O)Nc3ccc([C@@H]4C[C@H]4N)cc3)cc2NC(=O)OCc2ccccc2)CC1 (relative stereo) [Example 7, Benzyl N-[5-[[4-[(trans-2-aminocyclopropyl]phenyl]carbamoyl]-2-(4-methylpiperazin-1-yl)phenyl]carbamate Dihydrochloride]

SMILES: N[C@@H]1C[C@H]1c1ccc(NC(=O)c2cccc(N3CCOC3=O)c2)cc1 (relative stereo) [Example 3, N-[4-[trans-2-aminocyclopropyl]phenyl]-3-(2-oxooxazolidin-3-yl)benzamide hydrochloride]
- IC50 ([1]; Homo sapiens): ≤ 5 µM
- IC50 (MAO-A)/ IC50 (LSD1) (Human recombinant MAO A; hydrochloride): 3.30
- Target modulation CD14 mRNA expression (fold increase versus vehicle) (CD14 mRNA in THP-1 cells [2]; hydrochloride): 21.2 fold increase versus vehicle
- inhibition at 0.5 µM (human THP-1 cells): 41%
- Colony formation Target Modulation CD14 mRNA expression (Fold increase) (CD14 mRNA in THP-1 cells [4]; hydrochloride): 24.8 Fold increase

SMILES: N[C@H]1C[C@@H]1c1ccc(NC(=O)c2cccc(N3CCOC3=O)c2)cc1 [Example 13, N-[4-[(1R,2S)-2-aminocyclopropyl]phenyl]-3-(2-oxooxazolidin-3-yl)benzamide Hydrochloride]
- IC50 ([1]; Homo sapiens): ≤ 5 µM
- IC50 (MAO-A)/ IC50 (LSD1) (Human recombinant MAO A): 2.67
- Target modulation CD14 mRNA expression (fold increase versus vehicle) (CD14 mRNA in THP-1 cells [2]): 3.1 fold increase versus vehicle
- inhibition at 0.5 µM (human THP-1 cells): 19%
- Colony formation Target Modulation CD14 mRNA expression (Fold increase) (CD14 mRNA in THP-1 cells [4]): 6 Fold increase
